Test results published in ChEMBL document CHEMBL2413038, “Synthesis and bioevaluation of novel 4-aminoquinoline-tetrazole derivatives as potent antimalarial agents” (Eur J Med Chem, 2013).
In brackets after ≈: the same amount, converted by molar mass. Activity calls are given as the source filed them. The calls are words filed in the database; no cut-off is given here.

Assays:
Plasmodium falciparum [1] = assay: Antimalarial activity against chloroquine-sensitive Plasmodium falciparum 3D7 after 72 hrs by MSF assay; assay type: functional, organism-based; details: 3D7, 72 h
Plasma = assay: Inhibition of beta-hematin formation in Plasmodium yoelii-infected Swiss albino mouse plasma using hemin as substrate after 16 hrs; assay type: functional, cell-free
Plasmodium falciparum [2] = assay: Resistance index, ratio of IC50 for chloroquine-resistant Plasmodium falciparum K1 to IC50 for chloroquine-sensitive Plasmodium falciparum 3D7; assay type: functional
[3] = Selectivity index, ratio of CC50 for African green monkey Vero cells to IC50 for Plasmodium falciparum; assay type: functional
Plasmodium falciparum [4] = assay: Antimalarial activity against chloroquine-resistant Plasmodium falciparum K1 after 72 hrs by MSF assay; assay type: functional, organism-based; details: K1, 72 h
Plasmodium yoelii [5] = assay: Antimalarial activity against chloroquine-resistant Plasmodium yoelii N-67 infected in Swiss mouse assessed as cured animal at 50 mg/kg, ip qd for 4 days measured on day 28 post infection relative to control; assay type: functional
Plasmodium yoelii [6] = assay: Antimalarial activity against chloroquine-resistant Plasmodium yoelii N-67 infected in Swiss mouse assessed as mouse survival at 50 mg/kg, ip qd for 4 days measured on day 28 post infection relative to control; assay type: functional
Plasmodium yoelii [7] = assay: Antimalarial activity against chloroquine-resistant Plasmodium yoelii N-67 infected in Swiss mouse assessed as mean survival time at 50 mg/kg, ip qd for 4 days; assay type: functional; details: route intraperitoneal
Plasmodium yoelii [8] = assay: Antimalarial activity against chloroquine-resistant Plasmodium yoelii N-67 infected in Swiss mouse assessed as suppression of parasitaemia level at 50 mg/kg, ip qd for 4 days relative to control; assay type: functional; details: route intraperitoneal
[9] = Elimination half life in Sprague-Dawley rat at 10 mg/kg, po; assay type: ADME, organism-based; design: dose 10 mg/kg, route oral; details: in vivo, read-out: beta t1/2 (converted)
Plasmodium yoelii [10] = assay: Antimalarial activity against chloroquine-resistant Plasmodium yoelii N-67 infected in Swiss mouse assessed as cured animal at 100 mg/kg, po for 4 days measured on day 28 post infection relative to control; assay type: functional
[11] = Tmax in Sprague-Dawley rat at 10 mg/kg, po; assay type: ADME, organism-based; design: dose 10 mg/kg, route oral; details: in vivo
[12] = AUC (0 to t) in Sprague-Dawley rat at 10 mg/kg, po; assay type: ADME, organism-based; design: dose 10 mg/kg, route oral; details: plasma
Plasmodium yoelii [13] = assay: Antimalarial activity against chloroquine-resistant Plasmodium yoelii N-67 infected in Swiss mouse assessed as mouse survival at 100 mg/kg, po qd for 4 days measured on day 28 post infection relative to control; assay type: functional
Rattus norvegicus = assay: Volume of distribution in Sprague-Dawley rat at 10 mg/kg, po; assay type: ADME, organism-based; design: dose 10 mg/kg, route oral; details: in vivo
[14] = Clearance in Sprague-Dawley rat at 10 mg/kg, po; assay type: ADME, organism-based; design: dose 10 mg/kg, route oral; details: in vivo
Plasmodium yoelii [15] = assay: Antimalarial activity against chloroquine-resistant Plasmodium yoelii N-67 infected in Swiss mouse assessed as suppression of parasitaemia level at 100 mg/kg, po qd for 4 days relative to control; assay type: functional
Plasmodium yoelii [16] = assay: Antimalarial activity against chloroquine-resistant Plasmodium yoelii N-67 infected in Swiss mouse assessed as mean survival time at 100 mg/kg, po qd for 4 days; assay type: functional
[17] = Cmax in Sprague-Dawley rat at 10 mg/kg, po; assay type: ADME, organism-based; design: dose 10 mg/kg, route oral; details: in vivo
Plasmodium falciparum [18] = assay: Ratio of chloroquine IC50 to compound IC50 for chloroquine-resistant Plasmodium falciparum K1; assay type: functional

Structure (SMILES)	IC50 (Plasmodium falciparum [1]) [nM]	IC50 (Plasma) [µg/mL]	inhibition (Plasma)	Ratio IC50 (Plasmodium falciparum [2])	Ratio CC50/IC50 [3]	IC50 (Plasmodium falciparum [4]) [nM]	Activity (Plasmodium yoelii [5])	Activity (Plasmodium yoelii [6])	MST (Plasmodium yoelii [7]) [days]	Activity (Plasmodium yoelii [8]) [%]	also measured
COc1cc(C(Nc2ccc(Nc3ccnc4cc(Cl)ccc34)cc2)c2nnnn2C(C)(C)C)cc(OC)c1OC (configuration not stated)	54.2	5.65 (≈ 9.84 µM)	Dose-dependent effect	10.5	300.57	573					
Clc1ccc(C(Nc2ccc(Nc3ccnc4cc(Cl)ccc34)cc2)c2nnnn2C2CCCCC2)cc1 (configuration not stated)	156	3.81 (≈ 7 µM)	Dose-dependent effect	0.9	694.18	139	inactive	inactive	10.4	20.43	
COc1ccc(C(Nc2ccc(Nc3ccnc4cc(Cl)ccc34)cc2)c2nnnn2C(C)(C)C)cc1OC (configuration not stated)	70.6	5.42 (≈ 9.96 µM)	Dose-dependent effect	1	193.28	76.2	inactive	inactive	9.8	26.91	
CC(C)(C)n1nnnc1C(NCCNc1ccnc2cc(Cl)ccc12)c1ccc(Cl)cc1 (configuration not stated)	23.9	6.15 (≈ 13.1 µM)	Dose-dependent effect	11.6	839.68	278					
CC(C)(C)n1nnnc1C(Nc1ccc(Nc2ccnc3cc(Cl)ccc23)cc1)c1ccc(Cl)cc1 (configuration not stated)	10.7	5.29 (≈ 10.2 µM)	Dose-dependent effect	13.4	4616.14	143			23.6	99.99	half-life [9]: 5.27 h; Activity (Plasmodium yoelii [5]; route intraperitoneal): 60%; Activity (Plasmodium yoelii [10]): 60%; Tmax [11]: 2 h; AUC(0-t) [12]: 593 ng·h/mL; Activity (Plasmodium yoelii [13]): 60%; Vd (Rattus norvegicus): 28.16 L; Activity (Plasmodium yoelii [6]; route intraperitoneal): 60%; CL/F [14]: 61.7 mL/min; Activity (Plasmodium yoelii [15]): 99.99%; MST (Plasmodium yoelii [16]): 25.2 days; Cmax [17]: 49.2 ng/mL
CC(C)(C)n1nnnc1C(NCCNc1ccnc2cc(Cl)ccc12)c1cccc2ccccc12 (configuration not stated)	120	6.33 (≈ 13 µM)	Dose-dependent effect	1.5	305.32	184					
CC(C)(C)n1nnnc1C(Nc1ccc(Nc2ccnc3cc(Cl)ccc23)cc1)c1ccc(F)cc1 (configuration not stated)	29.5	5.49 (≈ 10.9 µM)	Dose-dependent effect	22.67	3165.31	669					
CCc1ccc(C(Nc2ccc(Nc3ccnc4cc(Cl)ccc34)cc2)c2nnnn2C(C)(C)C)cc1 (configuration not stated)	51.4	5.95 (≈ 11.6 µM)	Dose-dependent effect	13.4	3652.19	688					
COc1ccc(C(NCCCNc2ccnc3cc(Cl)ccc23)c2nnnn2C(C)(C)C)cc1OC (configuration not stated)	57.9	5.5 (≈ 10.8 µM)	Dose-dependent effect	2.3	1662.92	138					
CC(C)(C)n1nnnc1C(Nc1ccc(Nc2ccnc3cc(Cl)ccc23)cc1)c1ccc(Cl)c(Cl)c1 (configuration not stated)	11	5.4 (≈ 9.77 µM)	Dose-dependent effect	12.8	7076.29	142	inactive	inactive	16.83	71.49	
CC(C)(C)n1nnnc1C(NCCCNc1ccnc2cc(Cl)ccc12)c1ccc(Cl)cc1 (configuration not stated)	81.4	5.95 (≈ 12.3 µM)	Dose-dependent effect	9.2	248.65	754					
CC(C)(C)n1nnnc1C(c1ccc(Cl)cc1)N1CCN(c2ccnc3cc(Cl)ccc23)CC1 (configuration not stated)	787	5.32 (≈ 10.7 µM)	Dose-dependent effect	0.2	182.96	159	inactive	inactive	13	73.91	
Cc1ccc(C(Nc2ccc(Nc3ccnc4cc(Cl)ccc34)cc2)c2nnnn2C(C)(C)C)cc1 (configuration not stated)	1010	5.39 (≈ 10.8 µM)	Dose-dependent effect	0.07		75.4	inactive	inactive	11	21.3	Ratio IC50 (Plasmodium falciparum [18]): 3.38
COc1ccc(C(Nc2ccc(Nc3ccnc4cc(Cl)ccc34)cc2)c2nnnn2C(C)(C)C)cc1 (configuration not stated)	57.7	5.55 (≈ 10.8 µM)	Dose-dependent effect	6.6	702.34	384					
Clc1ccc2c(Nc3ccc(NC(c4ccc(Br)cc4)c4nnnn4C4CCCCC4)cc3)ccnc2c1 (configuration not stated)	92.7	4.38 (≈ 7.44 µM)	Dose-dependent effect	0.8	1191.58	73.7	inactive	inactive	12.6	69.56	Ratio IC50 (Plasmodium falciparum [18]): 3.38
COc1ccc(C(Nc2ccc(Nc3ccnc4cc(Cl)ccc34)cc2)c2nnnn2C2CCCCC2)cc1OC (configuration not stated)	853	5.19 (≈ 9.1 µM)	Dose-dependent effect	0.1	49.73	144					
CC(C)(C)n1nnnc1C(Nc1ccc(Nc2ccnc3cc(Cl)ccc23)cc1)c1ccccc1 (configuration not stated)	59.6	5.55 (≈ 11.5 µM)	Dose-dependent effect		2383.47	> 1020					
CC(C)(C)n1nnnc1C(Nc1ccc(Nc2ccnc3cc(Cl)ccc23)cc1)c1cccc2ccccc12 (configuration not stated)	28	5.12 (≈ 9.59 µM)	Dose-dependent effect	2.7	3815.38	77.8	inactive	inactive	12	57.03	Ratio IC50 (Plasmodium falciparum [18]): 3.38
CC(C)(C)n1nnnc1C(NCCCNc1ccnc2cc(Cl)ccc12)c1cccc2ccccc12 (configuration not stated)	216	4.45 (≈ 8.9 µM)	Dose-dependent effect	0.8	58.67	170					
